Measured values as given in patent US20230293535A1, “ERBB/BTK INHIBITORS” (Dizal (Jiangsu) Pharmaceutical Co., Ltd., priority 2018, published 2023).
Structures can show the parent of a compound that is named as a salt. Where two headings read alike, the source gives them in different places.

Key:
Type in all cases: cell-based
Ba/F3 EGFR ASV ins cells = experiment: Cell proliferation, Ba/F3 EGFR ASV ins (CellTiter-Glo, 72 h); conditions: Ba/F3 EGFR, 72 h;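 further: IL3-independent Ba/F3 cells transduced with EGFR V769_D770insASV, cellular ATP luminescence after compound exposure, growth relative to DMSO control with the day-0 baseline reading subtracted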
Procedure: WT or mutant cells were seeded in 384 well plates at appropriate concentrations with corresponding growth media supplemented with 10% FBS, for each experiment, identical plates were prepared in duplicates, and the plates were incubated overnight. On the next day, one of each duplicated plates was dosed with tested compounds at a series of concentrations, and another one of the duplicated plate was analysied for G0 value. The dosed plates were incubate for another 72 h at 37° C. with 5% CO2 and the number of viable cells in each well of the G0 plates or the dosed plates were measured by CellTiter-Glo® Luminescent Cell Viability Assay (Promega). This assay is a luminescent method for determining the number viable cells through measurement of cellular ATP concentration by detection of luciferase activity. Detection reagents (15 µl) was dispensed into per well, and the plates were incubate for 30 min at room temperature. Then, the luminescence in each well was measured using the Envision plate reader (PerkinElmer). The percentage of proliferation was calculated based on the formula: %Proliferation= 100 × (G3 value of sample well-Go value)/(G3 value of DMSO control-Go value).

WT EGFR = biological target: T1, WT EGFR (Homo sapiens, UniProt P00533); experiment: WT EGFR cellular phosphorylation inhibition in A-431 (hEGF stimulated, MSD); conditions: A431 cells, 4 h compound, then 100 ng/ml hEGF 10 min;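 further: electrochemiluminescence read-out of EGFR Tyr1068 phosphorylation expressed as ratio to total EGFR, cells kept in medium with 1% FBS, compounds tested as a concentration series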
T1 construct: host or cells: A-431

WT EGFR cell line A-431 = experiment: Cell proliferation, WT EGFR A431 (CellTiter-Glo, 72 h); conditions: Homo sapiens, A-431, 72 h;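 further: proliferation from a luminescent ATP viability signal, expressed as 100 × (treated minus time-zero plate) over (DMSO control minus time-zero plate), cells grown with 10% FBS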
[1] = biological target: T2, human EGFR exon 20 H773_V774insNPH (Homo sapiens, UniProt P00533, INS773NPH); experiment: EGFR Exon20 NPH insertion cellular phosphorylation inhibition (MSD pEGFR Y1068/total EGFR); conditions: Ba/F3 EGFR NPH ins cells, 4 h compound, p-EGFR(Y1068)/total EGFR;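 further: IL3-independent Ba/F3 cells with constitutively phosphorylated EGFR, compound exposure at 37 °C under 5% CO2, electrochemiluminescent MSD measurement of the p-EGFR to total EGFR ratio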
T2 construct: host or cells: Ba/F3

Ri-1 cells = experiment: BTK (wt) cell proliferation, Ri-1 (CellTiter-Glo, 72 h); conditions: Ri-1, 72 h, Ri-1 cells, 72 h, CellTiter-Glo; read-out: BTK WT Ri-1 GI50;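 further: viable cells quantified as cellular ATP luminescence, proliferation normalized to a time-zero plate and the DMSO control, compounds tested across a dilution series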
Procedure: (§1) OCI-LY-10 at 3,750 cells/well, TMD-8 and Ri-1 at 2,000 cells/well, and DB at 1,250 cells/well, respectively, were sorted into 384-well plates in RPMI1640 medium with 10% FBS. After overnight incubation, all cells were incubated with compound at a series of concentrations. Meanwhile, a duplicated plate of each cell line was prepared for measuring G0 value. The dosed plates were further incubated for 72 hours and the number of viable cells was measured by CellTiter-Glo® Luminescent Cell Viability Assay (Promega), a luminescent method for determining the number of viable cells through measurement of cellular ATP concentration using Envision plate reader (PerkinElmer). The percentage of proliferation was calculated as: % Proliferation = 100 × (G3 value of sample well - G0 value)/(G3 value of DMSO control - G0 value).

OCI-LY-10 cells = experiment: BTK (wt) cell proliferation, OCI-LY-10 (CellTiter-Glo, 72 h); conditions: Homo sapiens, OCI-Ly10, 72 h, OCI-LY-10 cells, 72 h, CellTiter-Glo; read-out: BTK WT OCI-LY-10 GI50;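 further: viable cells quantified via cellular ATP luminescence, proliferation given as percent of DMSO control after subtracting a duplicate plate read at time of dosing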
DB cells = experiment: BTK (wt) cell proliferation, DB (CellTiter-Glo, 72 h); conditions: Homo sapiens, DB, DB cells, CellTiter-Glo, read-out: Non-BCR activated DB GI50;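 further: DB cells in 384-well plates given a dilution series of compound, viable cells read by ATP luminescence, growth expressed versus DMSO control after subtracting a time-zero plate reading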
[2] = biological target: T3, human EGFR exon 20 V769_D770insASV (Homo sapiens, UniProt P00533, INS769ASV); experiment: EGFR Exon20 ASV insertion cellular phosphorylation inhibition (MSD pEGFR Y1068/total EGFR); conditions: Ba/F3 EGFR ASV ins cells, 4 h compound, p-EGFR(Y1068)/total EGFR;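 further: electrochemiluminescent readout on an MSD SECTOR Imager, IL3-independent transduced cells in medium with 1% FBS, compound concentration series at 37 °C and 5% CO2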
T3 construct: expressed in transfected cells; host or cells: Ba/F3 (DSMZ ACC-300), lentiviral transduction, puromycin selection, IL3 depletion

[3] = biological target: T4, human Her2 exon 20 insertion mutation YVMA (Homo sapiens, UniProt P04626, INS775YVMA); experiment: Her2 Exon 20 YVMA insertion cellular phosphorylation inhibition (MSD p-Her2 Y1248/total Her2); conditions: Her2 YVMAins cells, 4 h compound;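 further: lentivirally transduced NIH-3T3 cells in 1% FBS medium, electrochemiluminescent MSD read-out, graded compound concentrations at 37 °C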
T4 construct: expressed in transfected cells; host or cells: NIH-3T3, lentiviral transduction, puromycin selection

Ba/F3 EGFR NPH ins cells = experiment: Cell proliferation, Ba/F3 EGFR NPH ins (CellTiter-Glo, 72 h); conditions: Ba/F3 EGFR, 72 h;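 further: IL3-independent cells carrying constitutively phosphorylated EGFR, compound dilution series, viable cells quantified by ATP luminescence, growth relative to DMSO wells after subtracting pre-dosing (day 0) baseline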
TMD-8 cells = experiment: BTK (wt) cell proliferation, TMD-8 (CellTiter-Glo, 72 h); conditions: Homo sapiens, TMD8, 72 h, TMD-8 cells, 72 h, CellTiter-Glo; read-out: BTK WT TMD-8 GI50;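 further: viable cells quantified by ATP-based luminescence, proliferation expressed as percent of DMSO control after subtracting a time-zero baseline plate read at dosing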
Procedure: as §1

EGFR L858R&T790M = biological target: T5, EGFR L858R&T790M (Homo sapiens, UniProt P00533, L858R/T790M); experiment: EGFR L858R and T790M cellular phosphorylation inhibition in NCI-H1975 (MSD); conditions: NCI-H1975 cells, 4 h compound, p-EGFR(Y1068)/total EGFR; read-out: EGFR L858R and T790M mutation IC50;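 further: phosphorylated and total EGFR detected by electrochemiluminescence, cells exposed to compound in medium containing 1% FBS at 37 °C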
T5 construct: host or cells: NCI-H1975

[4] = tested on: NCI-H1975 EGFR L858R/T790M cells; experiment: Cell proliferation, NCI-H1975 EGFR L858R/T790M (CellTiter-Glo, 72 h); conditions: Homo sapiens, NCI-H1975, 72 h;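 further: viable cells quantified by luciferase-based ATP luminescence, proliferation expressed relative to DMSO-treated wells (100%) after subtracting a parallel plate read at the time of dosing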
[5] = tested on: Her2 exon 20 insertion YVMA transduced NIH-3T3 cell line; experiment: Cell proliferation, Her2 YVMAins NIH-3T3 (CellTiter-Glo, 72 h); conditions: Mus musculus, NIH3T3, 72 h, Her2 YVMAins cells, 72 h proliferation; read-out: Her2 Exon 20 YVMA insertion GI50;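 further: viable cells quantified by ATP luminescence, growth over a day-zero baseline plate expressed as percent of DMSO control growth, compound dilution series in 10% FBS medium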
[6] = Ba/F3 EGFR ASV ins, 72 h proliferation, read-out: EGFR Exon20 ASV insertion GI50
[7] = A431, 72 h proliferation, read-out: EGFR WT A431 GI50
[8] = Ba/F3 EGFR NPH ins, 72 h proliferation, read-out: EGFR Exon20 NPH insertion GI50
[9] = NCI-H1975, 72 h proliferation, read-out: EGFR L858R and T790M mutation GI50

T5 sequence (P00533 25-1210 T790M/L858R): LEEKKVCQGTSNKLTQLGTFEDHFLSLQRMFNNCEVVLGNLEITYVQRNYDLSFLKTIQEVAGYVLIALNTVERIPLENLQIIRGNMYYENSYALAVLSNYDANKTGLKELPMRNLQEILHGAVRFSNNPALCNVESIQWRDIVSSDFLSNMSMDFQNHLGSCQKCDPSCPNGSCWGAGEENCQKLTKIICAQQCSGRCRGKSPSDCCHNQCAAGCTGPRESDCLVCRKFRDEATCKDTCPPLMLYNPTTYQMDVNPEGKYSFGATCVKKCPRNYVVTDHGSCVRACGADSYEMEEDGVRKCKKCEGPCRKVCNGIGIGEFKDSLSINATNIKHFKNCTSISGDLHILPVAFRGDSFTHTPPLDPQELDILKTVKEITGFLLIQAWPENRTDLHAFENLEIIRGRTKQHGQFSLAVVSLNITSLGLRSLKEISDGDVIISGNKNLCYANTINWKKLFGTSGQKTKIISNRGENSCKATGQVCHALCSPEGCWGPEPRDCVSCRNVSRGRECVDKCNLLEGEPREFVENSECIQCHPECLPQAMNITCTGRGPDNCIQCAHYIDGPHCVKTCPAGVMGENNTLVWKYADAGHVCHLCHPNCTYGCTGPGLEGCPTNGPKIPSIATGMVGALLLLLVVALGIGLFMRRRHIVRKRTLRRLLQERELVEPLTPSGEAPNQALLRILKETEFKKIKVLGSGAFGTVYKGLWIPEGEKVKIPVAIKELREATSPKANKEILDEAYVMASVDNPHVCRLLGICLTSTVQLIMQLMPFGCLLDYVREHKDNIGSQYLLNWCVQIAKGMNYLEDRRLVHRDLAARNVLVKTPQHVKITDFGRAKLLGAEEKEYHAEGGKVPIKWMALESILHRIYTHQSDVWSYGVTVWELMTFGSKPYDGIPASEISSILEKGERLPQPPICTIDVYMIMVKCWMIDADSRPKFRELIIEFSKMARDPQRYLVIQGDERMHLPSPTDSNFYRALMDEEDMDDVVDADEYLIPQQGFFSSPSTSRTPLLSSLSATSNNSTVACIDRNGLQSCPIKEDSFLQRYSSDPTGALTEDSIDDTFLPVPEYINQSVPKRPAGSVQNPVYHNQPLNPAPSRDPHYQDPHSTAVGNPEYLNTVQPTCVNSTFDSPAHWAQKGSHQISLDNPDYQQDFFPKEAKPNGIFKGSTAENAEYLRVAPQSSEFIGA
T1 sequence (P00533 25-1210): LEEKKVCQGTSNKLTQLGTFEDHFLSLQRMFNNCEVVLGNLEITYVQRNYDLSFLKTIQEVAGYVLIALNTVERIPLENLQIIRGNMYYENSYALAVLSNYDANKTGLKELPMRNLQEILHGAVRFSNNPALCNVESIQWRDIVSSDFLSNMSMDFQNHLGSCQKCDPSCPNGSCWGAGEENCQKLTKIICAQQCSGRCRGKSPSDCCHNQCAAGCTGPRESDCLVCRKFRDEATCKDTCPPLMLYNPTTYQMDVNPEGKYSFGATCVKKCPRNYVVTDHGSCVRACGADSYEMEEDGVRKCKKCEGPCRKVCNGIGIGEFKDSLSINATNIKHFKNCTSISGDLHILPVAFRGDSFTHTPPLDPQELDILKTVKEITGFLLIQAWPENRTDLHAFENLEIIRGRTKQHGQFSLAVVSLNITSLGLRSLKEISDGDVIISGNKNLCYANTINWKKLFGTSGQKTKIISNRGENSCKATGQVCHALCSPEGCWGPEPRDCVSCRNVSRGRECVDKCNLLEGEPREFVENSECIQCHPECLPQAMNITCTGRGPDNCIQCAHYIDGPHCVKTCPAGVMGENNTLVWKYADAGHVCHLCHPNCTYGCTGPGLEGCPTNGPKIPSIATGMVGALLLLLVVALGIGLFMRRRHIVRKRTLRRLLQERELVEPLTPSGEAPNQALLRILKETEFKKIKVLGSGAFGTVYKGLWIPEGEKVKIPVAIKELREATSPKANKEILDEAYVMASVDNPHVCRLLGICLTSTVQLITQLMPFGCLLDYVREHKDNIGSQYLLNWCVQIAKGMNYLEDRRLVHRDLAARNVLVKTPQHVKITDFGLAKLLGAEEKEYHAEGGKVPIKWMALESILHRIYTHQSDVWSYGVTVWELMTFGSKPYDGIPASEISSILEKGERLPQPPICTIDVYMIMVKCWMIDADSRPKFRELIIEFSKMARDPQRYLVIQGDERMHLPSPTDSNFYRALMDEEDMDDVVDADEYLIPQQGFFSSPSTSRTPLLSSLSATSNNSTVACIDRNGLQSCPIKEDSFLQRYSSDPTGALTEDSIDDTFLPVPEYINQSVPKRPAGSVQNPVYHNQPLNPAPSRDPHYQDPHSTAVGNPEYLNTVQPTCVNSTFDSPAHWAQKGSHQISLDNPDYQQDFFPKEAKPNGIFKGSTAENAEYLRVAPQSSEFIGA
T2 sequence (P00533 with tags, fused parts or gaps INS773NPH): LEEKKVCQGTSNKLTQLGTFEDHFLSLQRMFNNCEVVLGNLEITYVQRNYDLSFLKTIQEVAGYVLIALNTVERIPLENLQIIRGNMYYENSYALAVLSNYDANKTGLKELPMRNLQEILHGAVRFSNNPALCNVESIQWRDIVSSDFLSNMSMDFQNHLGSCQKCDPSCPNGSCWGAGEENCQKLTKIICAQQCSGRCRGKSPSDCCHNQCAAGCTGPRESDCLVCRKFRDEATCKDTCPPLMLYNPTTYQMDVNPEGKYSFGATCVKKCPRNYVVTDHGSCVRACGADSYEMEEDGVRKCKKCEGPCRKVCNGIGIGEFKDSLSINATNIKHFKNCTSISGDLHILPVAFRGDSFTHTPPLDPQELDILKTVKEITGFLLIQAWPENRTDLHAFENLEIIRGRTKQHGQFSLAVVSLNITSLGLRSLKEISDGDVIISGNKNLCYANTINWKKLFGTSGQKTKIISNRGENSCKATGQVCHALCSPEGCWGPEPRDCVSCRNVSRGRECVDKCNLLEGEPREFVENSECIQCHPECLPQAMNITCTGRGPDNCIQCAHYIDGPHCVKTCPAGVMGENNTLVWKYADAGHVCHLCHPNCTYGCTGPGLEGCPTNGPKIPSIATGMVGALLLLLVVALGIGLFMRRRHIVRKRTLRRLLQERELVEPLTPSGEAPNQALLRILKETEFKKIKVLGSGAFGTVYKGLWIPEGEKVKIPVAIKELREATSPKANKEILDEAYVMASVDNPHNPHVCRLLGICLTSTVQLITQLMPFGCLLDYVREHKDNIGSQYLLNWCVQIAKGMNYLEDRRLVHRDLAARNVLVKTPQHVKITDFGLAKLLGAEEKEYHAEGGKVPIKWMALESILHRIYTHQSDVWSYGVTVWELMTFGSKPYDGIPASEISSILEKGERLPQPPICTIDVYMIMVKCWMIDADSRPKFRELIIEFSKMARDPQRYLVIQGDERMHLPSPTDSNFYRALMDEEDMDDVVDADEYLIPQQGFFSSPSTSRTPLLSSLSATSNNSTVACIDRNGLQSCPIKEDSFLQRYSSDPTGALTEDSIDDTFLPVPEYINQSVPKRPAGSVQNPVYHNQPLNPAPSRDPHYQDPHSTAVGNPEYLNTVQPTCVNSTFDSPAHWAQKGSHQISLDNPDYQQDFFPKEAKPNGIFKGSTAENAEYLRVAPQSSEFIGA
T4 sequence (P04626 with tags, fused parts or gaps INS775YVMA): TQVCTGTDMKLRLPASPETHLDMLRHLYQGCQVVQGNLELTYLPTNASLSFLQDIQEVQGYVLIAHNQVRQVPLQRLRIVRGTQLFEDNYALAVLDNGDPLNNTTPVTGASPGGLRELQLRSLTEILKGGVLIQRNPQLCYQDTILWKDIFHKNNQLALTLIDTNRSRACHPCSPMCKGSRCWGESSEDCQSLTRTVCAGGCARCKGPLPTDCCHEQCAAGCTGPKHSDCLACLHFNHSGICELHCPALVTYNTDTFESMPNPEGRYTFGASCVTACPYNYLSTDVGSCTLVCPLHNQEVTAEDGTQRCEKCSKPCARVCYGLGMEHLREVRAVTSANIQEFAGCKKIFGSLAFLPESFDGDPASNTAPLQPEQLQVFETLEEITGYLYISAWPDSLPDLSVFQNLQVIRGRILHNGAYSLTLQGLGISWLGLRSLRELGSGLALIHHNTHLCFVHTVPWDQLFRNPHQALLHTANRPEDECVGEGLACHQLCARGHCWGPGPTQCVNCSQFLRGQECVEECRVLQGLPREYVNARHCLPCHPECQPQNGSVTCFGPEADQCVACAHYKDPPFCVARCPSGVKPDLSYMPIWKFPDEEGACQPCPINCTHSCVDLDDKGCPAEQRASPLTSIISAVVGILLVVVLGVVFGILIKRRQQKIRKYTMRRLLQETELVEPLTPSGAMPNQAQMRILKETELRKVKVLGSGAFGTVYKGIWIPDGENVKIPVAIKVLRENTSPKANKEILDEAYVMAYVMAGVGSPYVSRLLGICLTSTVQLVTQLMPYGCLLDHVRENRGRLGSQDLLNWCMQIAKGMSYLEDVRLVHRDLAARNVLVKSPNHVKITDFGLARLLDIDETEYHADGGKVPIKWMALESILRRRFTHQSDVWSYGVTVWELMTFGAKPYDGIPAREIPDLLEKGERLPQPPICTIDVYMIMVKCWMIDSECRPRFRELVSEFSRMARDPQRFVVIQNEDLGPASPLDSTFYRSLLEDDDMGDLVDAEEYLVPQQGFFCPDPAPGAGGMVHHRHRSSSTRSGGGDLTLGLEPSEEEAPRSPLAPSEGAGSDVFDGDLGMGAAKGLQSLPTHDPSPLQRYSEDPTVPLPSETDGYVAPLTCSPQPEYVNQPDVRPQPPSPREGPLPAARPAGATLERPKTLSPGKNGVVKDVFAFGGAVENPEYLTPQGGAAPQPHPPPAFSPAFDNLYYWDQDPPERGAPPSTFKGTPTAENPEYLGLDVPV

| GI50 (Ba/F3 EGFR ASV ins cells; [6]) | IC50 (WT EGFR) | GI50 (WT EGFR cell line A-431; [7]) | IC50 [1] | GI50 (OCI-LY-10 cells) | IC50 [2] | IC50 [3] | GI50 (Ba/F3 EGFR NPH ins cells; [8]) | IC50 (EGFR L858R&T790M) | GI50 [4, 9] | SMILES | GI50 (Ri-1 cells) | GI50 (DB cells) | GI50 (TMD-8 cells) | GI50 [5] | GI50 (Ba/F3 EGFR ASV ins cells; read-out: EGFR Exon20 ASV insertion GI50 (nM)) | GI50 (WT EGFR cell line A-431; read-out: EGFR WT A431 GI50 (nM)) | GI50 (Ba/F3 EGFR NPH ins cells; read-out: EGFR Exon20 NPH insertion GI50 (nM)) | GI50 ([4]; read-out: EGFR L858R and T790M mutation GI50 (nM)) |
| --- | --- | --- | --- | --- | --- | --- | --- | --- | --- | --- | --- | --- | --- | --- | --- | --- | --- | --- |
| 86.6 nM | 133 nM | 43 nM | 65.1 nM | 3.9 nM | 34.4 nM | 52.6 nM | 76.8 nM | 0.4 nM | 6 nM | C=CC(=O)Nc1cc(Nc2ncc(Cl)c(Nc3cc(Cl)c(F)cc3C(C)(C)O)n2)c(OC)cc1N1CC[C@@H](N(C)C)C1 [Compound 74, (R)-N-(5-(5-chloro-4-(5-chloro-4-fluoro-2-(2-hydroxypropan-2-yl)phenylamino)pyrimidin-2-ylamino)-2-(3-(dimethylamino)pyrrolidin-1-yl)-4-methoxyphenyl) acrylamide] | 82 nM | > 3000 nM | 9.1 nM | 155 nM | – | – | – | – |
| 90.6 nM | 42.6 nM | 11.6 nM | 27.9 nM | 45.5 nM | 18.5 nM | 10.8 nM | 73 nM | 3.7 nM | 19.2 nM | C=CC(=O)Nc1cc(Nc2ncnc(Nc3cc(C4CC4)c(F)cc3C(C)(C)O)n2)c(OC)cc1N(C)CCN(C)C [Compound 75, N-(5-(4-(5-cyclopropyl-4-fluoro-2-(2-hydroxypropan-2-yl)phenylamino)-1,3,5-triazin-2-ylamino)-2-((2-(dimethylamino)ethyl)(methyl)amino)-4-methoxyphenyl)acrylamide] | 250 nM | > 3000 nM | 133 nM | 29.9 nM | – | – | – | – |
| 77.7 nM | 97.8 nM | 42 nM | 13.8 nM | 76.1 nM | 17.2 nM | 7 nM | 35.8 nM | 0.9 nM | 3.6 nM | C=CC(=O)Nc1cc(Nc2nccc(Nc3cc(Cl)c(F)cc3C(C)(C)O)n2)c(OC)cc1N1CC(F)(F)C[C@@H]1CN(C)C [Compound 82, (R)-N-(5-(4-(5-chloro-4-fluoro-2-(2-hydroxypropan-2-yl)phenylamino)pyrimidin-2-ylamino)-2-(2-((dimethylamino)methyl)-4,4-difluoropyrrolidin-1-yl)-4-methoxyphenyl)acrylamide] | 310 nM | > 3000 nM | 203 nM | 82.4 nM | – | – | – | – |
| 450 nM | 604 nM | 232 nM | 259 nM | 31.2 nM | 116 nM | 1560 nM | 191 nM | 0.4 nM | 19.1 nM | C=CC(=O)Nc1cc(Nc2ncc(C(F)(F)F)c(Nc3cc(Cl)c(F)cc3C(C)(C)O)n2)c(OC)cc1N1CC[C@@H](N(C)C)C1 [Compound 84, (R)-N-(5-(4-(5-chloro-4-fluoro-2-(2-hydroxypropan-2-yl)phenylamino)-5-(trifluoromethyl)pyrimidin-2-ylamino)-2-(3-(dimethylamino)pyrrolidin-1-yl)-4-methoxyphenyl)acrylamide] | 137 nM | > 3000 nM | 39.8 nM | 341 nM | – | – | – | – |
| 80.7 nM | 68.5 nM | 51.1 nM | 35.5 nM | 1.1 nM | 32.1 nM | 71.6 nM | 63.1 nM | 0.5 nM | 22.4 nM | C=CC(=O)Nc1cc(Nc2ncc(C#N)c(Nc3cc(Cl)c(F)cc3C(C)(C)O)n2)c(OC)cc1N1CC[C@@H](N(C)C)C1 [Compound 85, (R)-N (5-(4-(5-chloro-4-fluoro-2-(2-hydroxypropan-2-yl)phenylamino)-5-cyanopyrimidin-2-ylamino)-2-(3-(dimethylamino)pyrrolidin-1-yl)-4-methoxyphenyl)acrylamide] | 11 nM | > 3000 nM | 2.6 nM | 129 nM | – | – | – | – |
| 156 nM | 362 nM | 84.8 nM | 51.2 nM | 22.3 nM | 51.9 nM | 21.2 nM | 140 nM | 1 nM | 24.4 nM | C=CC(=O)Nc1cc(Nc2nccc(Nc3cc(Cl)c(F)cc3C(C)(C)O)n2)c(OC)cc1N1CC[C@H](N(C)C)C1 [Compound 87, (S)-N-(5-(4-(5-chloro-4-fluoro-2-(2-hydroxypropan-2-yl)phenylamino)pyrimidin-2-ylamino)-2-(3-(dimethylamino)pyrrolidin-1-yl)-4-methoxyphenyl)a crylamide] | 48 nM | 1210 nM | 13.7 nM | 827 nM | – | – | – | – |
| 92.1 nM | 765 nM | 40.6 nM | 79.9 nM | 228 nM | 71.2 nM | 26 nM | 84.7 nM | 1.7 nM | 4.9 nM | C=CC(=O)Nc1cc(Nc2nccc(Nc3cc(Cl)c(F)cc3C(C)(O)C(F)(F)F)n2)c(OC)cc1N1CC[C@@H](N(C)C)C1 (stereo partly drawn) [Compound 92, N-(5-(4-(5-chloro-4-fluoro-2-(1,1,1-trifluoro-2-hydroxypropan-2-yl)phenylamino)pyrimidin-2-ylamino)-2-((R)-3-(dimethylamino)pyrrolidin-1-yl)-4-methoxyphenyl) acrylamide] | 146 nM | 1200 nM | 63.8 nM | 212 nM | – | – | – | – |
| 80.9 nM | 28.9 nM | 16.5 nM | 28.5 nM | 21.6 nM | 17.7 nM | 4.4 nM | 94.9 nM | 0.7 nM | 6.4 nM | C=CC(=O)Nc1cc(Nc2ncnc(Nc3ccc4[nH]ccc4c3C(C)(C)O)n2)c(OC)cc1N(C)CCN(C)C [Compound 94, N-(2-((2-(dimethylamino)ethyl)(methyl)amino)-5-(4-(4-(2-hydroxypropan-2-yl)-1H-indol-5-ylamino)-1,3,5-triazin-2-ylamino)-4-methoxyphenyl)acrylamide] | 209 nM | > 3000 nM | 94.8 nM | 141 nM | – | – | – | – |

| SMILES | GI50 (Ba/F3 EGFR ASV ins cells; [6]) | IC50 (WT EGFR) | GI50 (WT EGFR cell line A-431; [7]) | IC50 [1] | GI50 (OCI-LY-10 cells) | IC50 [2] | IC50 [3] | GI50 (Ba/F3 EGFR NPH ins cells; [8]) | IC50 (EGFR L858R&T790M) | GI50 [4, 9] | GI50 (Ri-1 cells) | GI50 (DB cells) | GI50 (TMD-8 cells) | GI50 [5] | GI50 (Ba/F3 EGFR ASV ins cells; read-out: EGFR Exon20 ASV insertion GI50 (nM)) | GI50 (WT EGFR cell line A-431; read-out: EGFR WT A431 GI50 (nM)) | GI50 (Ba/F3 EGFR NPH ins cells; read-out: EGFR Exon20 NPH insertion GI50 (nM)) | GI50 ([4]; read-out: EGFR L858R and T790M mutation GI50 (nM)) |
| --- | --- | --- | --- | --- | --- | --- | --- | --- | --- | --- | --- | --- | --- | --- | --- | --- | --- | --- |
| C=CC(=O)Nc1cc(Nc2nccc(Nc3cc(Cl)c(F)cc3C(C)(C)O)n2)c(OC)cc1N1C[C@H](F)C[C@@H]1CN(C)C [Compound 88, N-(5-(4-(5-chloro-4-fluoro-2-(2-hydroxypropan-2-yl)phenylamino)pyrimidin-2-ylamino)-2-((2R,4R)-2-((dimethylamino)methyl)-4-fluoropyrrolidin-1-yl)-4-methoxyphenyl) acrylamide formic acid salt] | – | 27.8 nM | – | 10.1 nM | 1.57 nM | 7.5 nM | 4.5 nM | – | 0.5 nM | – | 12 nM | > 3000 nM | 6.49 nM | 31.2 nM | 14 nM | 6.9 nM | 18.8 nM | 1.8 nM |
